Earlier results, collected in patent US8951728B2, “Template directed split and mix synthesis of small molecule libraries” (ChemGene Holding ApS, priority 2004, dated 2015).
pKd: −log10 of the molar value.

Molecular target: alphaV/beta3 integrin receptor (Homo sapiens, UniProt P05106+P06756)
Sequence (P06756 31-889 limits assumed): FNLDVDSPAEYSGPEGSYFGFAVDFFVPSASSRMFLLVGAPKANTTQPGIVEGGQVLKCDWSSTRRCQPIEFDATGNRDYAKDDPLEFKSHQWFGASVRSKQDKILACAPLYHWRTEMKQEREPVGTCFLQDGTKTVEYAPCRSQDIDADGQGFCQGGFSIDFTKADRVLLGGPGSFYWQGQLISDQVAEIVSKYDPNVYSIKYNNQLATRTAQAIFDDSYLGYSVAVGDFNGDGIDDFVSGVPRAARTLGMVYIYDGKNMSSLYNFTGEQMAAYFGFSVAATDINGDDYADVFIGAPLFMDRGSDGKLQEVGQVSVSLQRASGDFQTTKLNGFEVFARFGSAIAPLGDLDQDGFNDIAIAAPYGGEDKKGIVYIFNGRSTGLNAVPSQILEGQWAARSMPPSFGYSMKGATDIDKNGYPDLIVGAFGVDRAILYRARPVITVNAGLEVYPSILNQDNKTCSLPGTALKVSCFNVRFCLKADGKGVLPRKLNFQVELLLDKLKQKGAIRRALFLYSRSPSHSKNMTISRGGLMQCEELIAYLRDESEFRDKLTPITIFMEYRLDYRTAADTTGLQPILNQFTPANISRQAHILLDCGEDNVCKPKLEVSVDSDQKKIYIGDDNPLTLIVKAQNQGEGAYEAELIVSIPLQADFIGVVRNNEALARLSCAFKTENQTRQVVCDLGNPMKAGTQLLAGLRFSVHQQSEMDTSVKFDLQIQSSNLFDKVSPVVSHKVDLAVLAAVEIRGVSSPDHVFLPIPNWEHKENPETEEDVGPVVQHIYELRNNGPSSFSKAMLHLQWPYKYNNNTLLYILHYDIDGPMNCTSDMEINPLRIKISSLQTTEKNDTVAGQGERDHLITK
Sequence (P06756 891-1048 limits assumed): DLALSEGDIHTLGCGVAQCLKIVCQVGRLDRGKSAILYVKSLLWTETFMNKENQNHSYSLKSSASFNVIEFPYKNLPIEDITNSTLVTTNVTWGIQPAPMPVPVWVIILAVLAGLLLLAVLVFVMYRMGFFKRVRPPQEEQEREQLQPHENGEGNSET
Sequence (P05106 27-788): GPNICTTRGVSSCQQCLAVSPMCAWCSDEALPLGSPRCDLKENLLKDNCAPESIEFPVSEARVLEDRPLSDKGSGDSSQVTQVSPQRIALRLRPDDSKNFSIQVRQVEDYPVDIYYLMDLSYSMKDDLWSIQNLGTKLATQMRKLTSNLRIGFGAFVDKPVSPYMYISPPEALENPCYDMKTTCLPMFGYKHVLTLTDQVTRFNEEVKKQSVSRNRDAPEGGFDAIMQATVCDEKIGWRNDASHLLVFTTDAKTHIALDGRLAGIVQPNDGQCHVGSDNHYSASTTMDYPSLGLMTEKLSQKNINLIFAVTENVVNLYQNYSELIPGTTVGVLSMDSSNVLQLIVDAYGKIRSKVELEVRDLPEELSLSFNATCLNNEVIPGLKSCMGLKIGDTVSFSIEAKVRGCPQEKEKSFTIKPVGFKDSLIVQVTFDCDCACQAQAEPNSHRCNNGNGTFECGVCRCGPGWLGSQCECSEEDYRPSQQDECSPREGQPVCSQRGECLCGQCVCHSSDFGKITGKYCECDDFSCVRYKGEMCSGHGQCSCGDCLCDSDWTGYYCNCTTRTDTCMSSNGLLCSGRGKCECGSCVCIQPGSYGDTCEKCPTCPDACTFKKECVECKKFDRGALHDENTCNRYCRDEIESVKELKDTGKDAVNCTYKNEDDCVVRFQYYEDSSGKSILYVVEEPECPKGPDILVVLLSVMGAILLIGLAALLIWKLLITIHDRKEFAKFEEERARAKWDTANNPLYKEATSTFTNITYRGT

affinity compared to the RGD-tripeptide: ten-fold increased affinity | pKd (Feuston et al., J Med. Chem. 2002): 6.95
Compound: O=C(O)CC(NC(=O)CNC(=O)CCCc1ccc2c(n1)NCCC2)C(=O)O (centres unmarked) [Feuston 5]
